Among the test systems are SNB-75; TK-10; BT-549; RXF 393; RPMI-8226; SK-MEL-5; SF-295; HOP-92; Malme-3M; SF-539; OVCAR-3; HOP-62; SK-MEL-28; NCI-H522; Hs-578T; NCI-H23; HCT-15; T47D; DU-145; IGROV-1.
Test in all cases: NCI tumour cell line growth inhibition, 48 h

Experimental findings from ChEMBL document CHEMBL1201862, “PubChem BioAssay data set” (2004) are described below.

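All cell lines were grown in 96-well plates and treated with compound for 48 hours. Here, GI50 denotes the concentration required for 50% inhibition of growth.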 Activity calls are given as the source filed them. No stated cut-off is given here; in the data, active = GI50 up to about 1.1 µM and inactive = higher.

On to `OCc1ccc(-c2ccc(-c3ccc(CO)s3)o2)s1`, for which the GI50 was 36.6 µM (inactive) with SNB-75; 0.0249 µM (active) with TK-10; 4.04 µM (inactive) with BT-549; 0.285 µM (active) in the test on RXF 393; 2.99 µM (inactive) in the test with RPMI-8226; 20.7 µM (inactive) in the test on SK-MEL-5. For the same compound, the GI50 in the test with SF-295 was 7.4 µM (inactive); with HOP-92, 32.6 µM (inactive); in the test on Malme-3M, 57 µM (inactive); in the test on SF-539, 14.2 µM (inactive); in the test on OVCAR-3 it was 0.0703 µM (active); in the test with HOP-62, 0.103 µM (active). The GI50 is 42.7 µM (inactive) in the test with SK-MEL-28; 29.2 µM (inactive) in the test on NCI-H522; 27.7 µM (inactive) in the test on Hs-578T; 17.9 µM (inactive) in the test on NCI-H23; 8.09 µM with HCT-15; 0.31 µM (active) in the test on T47D. Further, the GI50 in the test on DU-145 is 6.07 µM (inactive); in the test with IGROV-1 it was 0.0373 µM (active).
For `CC(=O)c1sc2c(c1OC(=O)c1ccccc1)c(=O)n(-c1ccccc1)c(=S)n2-c1ccccc1`, the GI50 in the test on SNB-75 is 2.26 µM (inactive); with TK-10 it was 24 µM (inactive); in the test on BT-549 it was > 10 µM (inactive); in the test with RXF 393 it was 2.86 µM (inactive); with RPMI-8226, 3.12 µM (inactive); in the test on SK-MEL-5 it was 5.62 µM (inactive). For the same compound, the GI50 is 2.48 µM (inactive) with SF-295; 1.69 µM (inactive) with HOP-92; 2.46 µM (inactive) with Malme-3M; 2.32 µM (inactive) with SF-539; 17.9 µM (inactive) with OVCAR-3; 15 µM (inactive) in the test on HOP-62. The GI50 in the test on SK-MEL-28 is 3.89 µM (inactive); in the test with NCI-H522, 28.6 µM (inactive); in the test with Hs-578T it was 3.74 µM (inactive); with NCI-H23, 27.3 µM (inactive); in the test on HCT-15 it was 18 µM; in the test on T47D, 9.23 µM (inactive). The GI50 in the test on DU-145 is 28.1 µM (inactive); in the test on IGROV-1, 23.3 µM (inactive).
With `COc1cc(C=C2N=C(c3ccccc3)N(n3c(-c4ccccc4)nc4ccccc4c3=O)C2=O)cc(OC)c1OC`, the GI50 in the test with SNB-75 was 23.1 µM (inactive); in the test with TK-10, 45.9 µM (inactive); in the test on BT-549 it was 16.4 µM (inactive); with RXF 393 it was 12.1 µM (inactive); with RPMI-8226, > 10 µM (inactive); in the test on SK-MEL-5, 23.4 µM (inactive). In addition, the GI50 was 19.5 µM (inactive) in the test on SF-295; 14.5 µM (inactive) in the test with HOP-92; 19.3 µM (inactive) with Malme-3M; 18.7 µM (inactive) with SF-539; 21.3 µM (inactive) in the test with OVCAR-3; 13.6 µM (inactive) with HOP-62. Besides, the GI50 is 17.7 µM (inactive) with SK-MEL-28; 20.1 µM (inactive) in the test on NCI-H522; 15.8 µM (inactive) in the test with Hs-578T; 19.1 µM (inactive) with NCI-H23; 31.5 µM with HCT-15; 20.3 µM (inactive) in the test on T47D. Besides, the GI50 in the test on DU-145 is 27.6 µM (inactive); with IGROV-1, 32.5 µM (inactive).
With `CC(=N\N)/C(C)=N/N=C(C)/C(C)=N/N=C(C)/C(C)=N/N`, the GI50 in the test on SNB-75, in the test on TK-10, in the test with BT-549, in the test with RXF 393, in the test with RPMI-8226 and in the test with SK-MEL-5 was > 100 µM (inactive) in each case. Besides, the GI50 in the test on SF-295, with HOP-92, in the test with Malme-3M, in the test on SF-539, in the test on OVCAR-3 and in the test on HOP-62 was > 100 µM (inactive) each time. In addition, the GI50 in the test with SK-MEL-28 was > 100 µM (inactive); in the test with NCI-H522 it was > 100 µM (inactive); in the test with Hs-578T, > 100 µM (inactive); with NCI-H23, > 100 µM (inactive); in the test with HCT-15 it was > 100 µM; in the test with T47D, > 100 µM (inactive). In addition, the GI50 in the test with DU-145 and in the test on IGROV-1 was > 100 µM (inactive) throughout.
In the case of `Cc1c(N)nc(C(CC(N)=O)NCC(N)C(N)=O)nc1C(=O)NC(C(=O)NC(C)C(O)C(C)C(=O)NC(C(=O)NCCc1nc(-c2nc(C(=O)NCCCNC(C)c3ccccc3)cs2)cs1)C(C)O)C(OC1OC(CO)C(O)C(O)C1OC1OC(CO)C(O)C(OC(N)=O)C1O)c1c[nH]cn1` (centres undefined), the GI50 in the test with SNB-75 is 0.296 µM (active); in the test with TK-10 it was 40.5 µM (inactive); in the test with BT-549, 18.2 µM (inactive); in the test on RXF 393, 0.156 µM (active); with RPMI-8226, 3.21 µM (inactive); with SK-MEL-5, 1.05 µM (active). Also, the GI50 in the test on SF-295 was 0.163 µM (active); with HOP-92 it was 0.19 µM (active); in the test with Malme-3M it was 1.42 µM (inactive); with SF-539, 0.0233 µM (active); in the test on OVCAR-3 it was 8.05 µM (inactive); with HOP-62, 0.0998 µM (active). Besides, the GI50 was 31.5 µM (inactive) in the test on SK-MEL-28; 2.65 µM (inactive) in the test with NCI-H522; 0.0482 µM (active) with Hs-578T; 0.753 µM (active) in the test on NCI-H23; 5.24 µM in the test with HCT-15; 5.26 µM (inactive) in the test with T47D. The GI50 is 7.29 µM (inactive) in the test with DU-145 and 9.51 µM (inactive) in the test with IGROV-1.
As for `O=C1c2ccccc2NC2C(O)c3ccccc3N12` (centres undefined), the GI50 in the test with SNB-75 was > 100 µM (inactive); in the test on TK-10, 99.3 µM (inactive); in the test with BT-549 it was 58.2 µM (inactive); with RXF 393, > 100 µM (inactive); with RPMI-8226, 10.1 µM (inactive); in the test with SK-MEL-5 it was 52.7 µM (inactive). Moreover, the GI50 with SF-295 is 28.8 µM (inactive); in the test with HOP-92, > 100 µM (inactive); in the test with Malme-3M, 3.98 µM (inactive); in the test on SF-539, > 100 µM (inactive); with OVCAR-3, 37 µM (inactive); with HOP-62, 65 µM (inactive). Besides, the GI50 in the test on NCI-H522 was 4.09 µM (inactive); with Hs-578T it was 25.1 µM (inactive); with NCI-H23, 29.8 µM (inactive); in the test on HCT-15, 34.6 µM; in the test on T47D, 6.5 µM (inactive); in the test with DU-145, 45.6 µM (inactive). Besides, the GI50 in the test with IGROV-1 is 72.8 µM (inactive).
Take `Cc1cc(OCc2nc(N)nc(N)c2-c2ccc(Cl)c(Cl)c2)ccc1[N+](=O)[O-]`: the GI50 was 2.1 µM (inactive) in the test on SNB-75; 0.401 µM (active) in the test on TK-10; 1.03 µM (active) in the test with BT-549; 0.794 µM (active) in the test on RXF 393; 1.46 µM (inactive) with RPMI-8226; 0.224 µM (active) with SK-MEL-5. Besides, the GI50 in the test with SF-295 is 0.0678 µM (active); in the test on HOP-92, 4.92 µM (inactive); in the test with Malme-3M, 2.59 µM (inactive); with SF-539, 0.451 µM (active); in the test with OVCAR-3 it was 0.282 µM (active); with HOP-62 it was 0.379 µM (active). The GI50 is 0.531 µM (active) in the test with SK-MEL-28; 0.893 µM (active) in the test on NCI-H522; 12.2 µM (inactive) with Hs-578T; 0.141 µM (active) in the test with NCI-H23; 0.0893 µM with HCT-15; 2.44 µM (inactive) with T47D. Further, the GI50 in the test with DU-145 was 0.582 µM (active); in the test with IGROV-1 it was 0.0723 µM (active).
